Patent publication US10344060B2 (priority 2013, dated 2019)

Legend:
hNav1.4 = hNav1.4 (Homo sapiens, UniProt P35499); test: cell-based; format: cell-based; settings: ratio of PX tonic IC50 values
hNav1.5 = hNav1.5 (Homo sapiens, UniProt Q14524); test: cell-based; settings: ratio of PX tonic IC50 values
Sequence of hNav1.5 (Q14524 whole entry): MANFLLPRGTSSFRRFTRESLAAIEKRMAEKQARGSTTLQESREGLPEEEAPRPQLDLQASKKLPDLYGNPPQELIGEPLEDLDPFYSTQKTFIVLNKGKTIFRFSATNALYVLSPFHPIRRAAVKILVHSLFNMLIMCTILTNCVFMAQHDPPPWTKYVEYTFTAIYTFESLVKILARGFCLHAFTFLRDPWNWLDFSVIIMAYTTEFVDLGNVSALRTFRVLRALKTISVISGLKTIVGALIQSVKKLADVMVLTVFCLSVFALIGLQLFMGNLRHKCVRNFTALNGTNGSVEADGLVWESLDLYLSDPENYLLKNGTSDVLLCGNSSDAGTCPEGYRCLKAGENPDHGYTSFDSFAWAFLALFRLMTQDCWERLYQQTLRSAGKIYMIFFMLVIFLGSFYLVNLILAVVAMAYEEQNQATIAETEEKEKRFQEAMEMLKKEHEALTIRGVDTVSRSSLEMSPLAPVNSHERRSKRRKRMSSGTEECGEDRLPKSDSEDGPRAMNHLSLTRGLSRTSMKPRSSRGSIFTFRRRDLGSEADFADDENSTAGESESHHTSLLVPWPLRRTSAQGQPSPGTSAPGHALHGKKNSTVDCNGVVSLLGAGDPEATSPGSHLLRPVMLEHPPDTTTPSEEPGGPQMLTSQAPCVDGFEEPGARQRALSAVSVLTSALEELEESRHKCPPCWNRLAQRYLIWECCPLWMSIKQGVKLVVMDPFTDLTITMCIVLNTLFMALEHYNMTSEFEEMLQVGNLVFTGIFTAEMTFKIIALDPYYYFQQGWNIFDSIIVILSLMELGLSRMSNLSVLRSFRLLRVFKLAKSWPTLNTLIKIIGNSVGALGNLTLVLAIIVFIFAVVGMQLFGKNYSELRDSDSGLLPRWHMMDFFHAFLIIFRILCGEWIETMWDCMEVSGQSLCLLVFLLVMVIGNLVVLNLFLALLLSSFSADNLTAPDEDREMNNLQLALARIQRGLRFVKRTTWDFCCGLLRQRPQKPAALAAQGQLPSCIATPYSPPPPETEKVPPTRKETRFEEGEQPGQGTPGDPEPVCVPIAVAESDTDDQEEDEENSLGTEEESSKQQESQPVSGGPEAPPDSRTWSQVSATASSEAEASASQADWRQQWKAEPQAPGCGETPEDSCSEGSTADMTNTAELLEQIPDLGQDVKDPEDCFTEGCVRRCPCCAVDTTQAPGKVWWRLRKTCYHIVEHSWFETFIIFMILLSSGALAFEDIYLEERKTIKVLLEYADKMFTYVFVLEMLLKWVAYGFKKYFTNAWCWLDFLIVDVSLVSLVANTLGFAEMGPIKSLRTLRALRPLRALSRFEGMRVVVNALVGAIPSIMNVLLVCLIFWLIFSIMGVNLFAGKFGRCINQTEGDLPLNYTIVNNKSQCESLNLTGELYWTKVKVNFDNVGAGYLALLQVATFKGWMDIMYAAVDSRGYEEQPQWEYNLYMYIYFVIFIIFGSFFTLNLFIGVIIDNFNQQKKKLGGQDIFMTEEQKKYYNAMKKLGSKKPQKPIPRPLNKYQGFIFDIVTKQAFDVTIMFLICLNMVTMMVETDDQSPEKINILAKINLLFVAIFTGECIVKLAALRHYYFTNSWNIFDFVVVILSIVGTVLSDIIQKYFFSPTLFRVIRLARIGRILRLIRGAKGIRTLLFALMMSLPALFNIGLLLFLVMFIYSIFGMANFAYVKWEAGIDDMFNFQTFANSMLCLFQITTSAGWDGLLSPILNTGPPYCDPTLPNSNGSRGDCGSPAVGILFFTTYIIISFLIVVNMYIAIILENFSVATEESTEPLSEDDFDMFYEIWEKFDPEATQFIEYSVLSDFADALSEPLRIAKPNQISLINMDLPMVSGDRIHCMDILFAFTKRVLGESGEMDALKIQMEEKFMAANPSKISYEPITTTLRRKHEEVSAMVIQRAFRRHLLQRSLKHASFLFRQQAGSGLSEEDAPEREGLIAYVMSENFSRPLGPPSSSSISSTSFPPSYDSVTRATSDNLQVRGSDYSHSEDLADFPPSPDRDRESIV

Sequence of hNav1.4 (P35499 whole entry): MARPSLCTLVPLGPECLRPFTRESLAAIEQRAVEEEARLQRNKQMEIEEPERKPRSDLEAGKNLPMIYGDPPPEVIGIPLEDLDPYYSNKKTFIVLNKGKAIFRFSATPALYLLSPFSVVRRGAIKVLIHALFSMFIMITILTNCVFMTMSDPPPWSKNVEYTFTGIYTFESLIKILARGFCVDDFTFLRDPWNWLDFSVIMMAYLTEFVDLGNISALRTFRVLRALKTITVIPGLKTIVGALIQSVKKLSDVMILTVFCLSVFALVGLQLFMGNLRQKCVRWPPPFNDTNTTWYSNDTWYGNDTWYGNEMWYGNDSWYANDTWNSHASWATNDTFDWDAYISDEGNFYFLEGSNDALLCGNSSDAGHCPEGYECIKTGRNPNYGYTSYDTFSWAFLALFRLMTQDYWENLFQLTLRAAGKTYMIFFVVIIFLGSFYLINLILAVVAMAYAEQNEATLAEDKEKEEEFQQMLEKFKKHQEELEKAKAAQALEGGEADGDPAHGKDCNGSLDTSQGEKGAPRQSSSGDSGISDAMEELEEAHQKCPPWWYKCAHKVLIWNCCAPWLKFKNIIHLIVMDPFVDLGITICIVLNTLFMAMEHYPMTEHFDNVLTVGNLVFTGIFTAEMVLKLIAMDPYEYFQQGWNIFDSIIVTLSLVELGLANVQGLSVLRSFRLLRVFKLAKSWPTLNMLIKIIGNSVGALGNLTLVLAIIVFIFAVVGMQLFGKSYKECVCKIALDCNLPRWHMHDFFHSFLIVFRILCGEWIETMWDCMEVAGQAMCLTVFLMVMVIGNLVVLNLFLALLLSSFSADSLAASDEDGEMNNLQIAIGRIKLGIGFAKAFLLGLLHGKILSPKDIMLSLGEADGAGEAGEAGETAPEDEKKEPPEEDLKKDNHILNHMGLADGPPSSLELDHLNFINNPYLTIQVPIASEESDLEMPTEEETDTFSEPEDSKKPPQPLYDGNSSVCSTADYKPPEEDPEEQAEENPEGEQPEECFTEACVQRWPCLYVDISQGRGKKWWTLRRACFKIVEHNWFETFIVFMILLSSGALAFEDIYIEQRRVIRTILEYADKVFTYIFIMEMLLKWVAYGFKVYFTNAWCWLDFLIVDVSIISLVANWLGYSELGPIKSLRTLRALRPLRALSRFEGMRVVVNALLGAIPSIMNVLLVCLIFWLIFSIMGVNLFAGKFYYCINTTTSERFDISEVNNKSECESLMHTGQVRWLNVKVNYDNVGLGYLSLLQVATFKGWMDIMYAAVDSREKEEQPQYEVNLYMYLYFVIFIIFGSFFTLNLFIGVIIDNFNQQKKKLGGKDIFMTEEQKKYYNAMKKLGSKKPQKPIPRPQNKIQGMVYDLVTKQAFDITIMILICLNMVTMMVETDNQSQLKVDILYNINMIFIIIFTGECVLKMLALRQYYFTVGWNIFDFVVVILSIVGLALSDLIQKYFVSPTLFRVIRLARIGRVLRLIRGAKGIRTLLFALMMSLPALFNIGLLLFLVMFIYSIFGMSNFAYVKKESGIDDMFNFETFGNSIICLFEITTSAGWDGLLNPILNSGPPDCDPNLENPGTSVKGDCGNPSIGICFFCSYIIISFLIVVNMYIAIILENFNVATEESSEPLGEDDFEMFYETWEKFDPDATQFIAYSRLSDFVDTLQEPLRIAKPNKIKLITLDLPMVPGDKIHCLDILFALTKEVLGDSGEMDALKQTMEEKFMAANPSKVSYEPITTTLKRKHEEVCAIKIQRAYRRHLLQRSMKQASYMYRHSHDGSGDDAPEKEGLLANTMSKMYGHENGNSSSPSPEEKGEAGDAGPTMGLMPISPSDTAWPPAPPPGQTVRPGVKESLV

SMILES | Nav1.4/Nav1.7 (hNav1.4; Table 12) | Nav1.5/Nav1.7 (hNav1.5; Table 12) | Nav1.4/Nav1.7 (hNav1.4; Table 13) | Nav1.5/Nav1.7 (hNav1.5; Table 13)
C#CC[C@@H]1NC(=O)[C@@H]2CSSC[C@H](NC(=O)[C@@H](N)Cc3ccc(O)cc3)C(=O)N[C@@H](CCC(N)=O)C(=O)N[C@@H](CCCCN)C(=O)N[C@@H](Cc3c[nH]c4ccccc34)C(=O)N[C@@H](CCCC)C(=O)N[C@@H](Cc3c[nH]c4ccccc34)C(=O)N[C@@H]([C@@H](C)O)C(=O)N[C@H]3CSSC[C@H](NC(=O)[C@H](CCCNC(=N)N)NC(=O)[C@H](CC(C)C)NC(=O)CNC1=O)C(=O)N[C@@H](CCCCN)C(=O)N[C@@H](CC(C)C)C(=O)N[C@@H](Cc1c[nH]c4ccccc14)C(=O)N[C@H](C(=O)N[C@@H](CCCNC(=N)N)C(=O)N[C@@H](CCCCN)C(=O)N[C@@H](CCC(=O)O)C(=O)N[C@H](C(N)=O)[C@@H](C)CC)CSSC[C@H](NC(=O)[C@H](C)NC(=O)[C@H](CCCNC(=N)N)NC(=O)[C@H](CCCCN)NC(=O)[C@H](CO)NC(=O)[C@H](CC(=O)O)NC3=O)C(=O)N2 [compound 332] | 34 | 849 |  | 
C#CC[C@H](N)C(=O)NCCOCCOCCOCCOCCC(=O)NCCCC[C@@H]1NC(=O)[C@@H]2CSSC[C@H](NC(=O)[C@@H](N)Cc3ccc(O)cc3)C(=O)N[C@@H](CCC(N)=O)C(=O)N[C@@H](CCCCN)C(=O)N[C@@H](Cc3c[nH]c4ccccc34)C(=O)N[C@@H](CCCC)C(=O)N[C@@H](Cc3c[nH]c4ccccc34)C(=O)N[C@@H]([C@@H](C)O)C(=O)N[C@H]3CSSC[C@H](NC(=O)[C@H](CCC(=O)O)NC(=O)[C@H](CC(C)C)NC(=O)CNC1=O)C(=O)N[C@@H](CCCCN)C(=O)N[C@@H](CC(C)C)C(=O)N[C@@H](Cc1c[nH]c4ccccc14)C(=O)N[C@H](C(=O)N[C@@H](CCCNC(=N)N)C(=O)N[C@@H](CCCCN)C(=O)N[C@H](C(=O)N[C@@H](Cc1c[nH]c4ccccc14)C(N)=O)[C@@H](C)CC)CSSC[C@H](NC(=O)[C@H](C)NC(=O)[C@H](CCCNC(=N)N)NC(=O)[C@H](CCCCN)NC(=O)[C@H](CO)NC(=O)[C@H](CC(=O)O)NC3=O)C(=O)N2 [compound 293] | 1 | 1 |  | 
CCCC[C@@H]1NC(=O)[C@H](Cc2c[nH]c3ccccc23)NC(=O)[C@H](CCCCN)NC(=O)[C@H](CCC(N)=O)NC(=O)[C@@H](NC(=O)[C@@H](N)CCN=[N+]=[N-])CSSC[C@@H]2NC(=O)[C@@H]3CSSC[C@@H](C(=O)N[C@@H](CCCNC(=N)N)C(=O)N[C@@H](CCCCN)C(=O)N[C@H](C(=O)N[C@@H](Cc4c[nH]c5ccccc45)C(N)=O)[C@@H](C)CC)NC(=O)[C@H](Cc4c[nH]c5ccccc45)NC(=O)[C@H](CC(C)C)NC(=O)[C@H](CCCCN)NC(=O)[C@H](CSSC[C@H](NC(=O)[C@H]([C@@H](C)O)NC(=O)[C@H](Cc4c[nH]c5ccccc45)NC1=O)C(=O)N[C@@H](CC(=O)O)C(=O)N[C@@H](CO)C(=O)N[C@@H](CCCCN)C(=O)N[C@@H](CCCNC(=N)N)C(=O)N[C@@H](C)C(=O)N3)NC(=O)[C@H](CCC(=O)O)NC(=O)[C@H](CC(C)C)NC(=O)CNC(=O)[C@H](CCC(=O)O)NC2=O [compound 309] | 239 | 634 |  | 
CCCC[C@@H]1NC(=O)[C@H](Cc2c[nH]c3ccccc23)NC(=O)[C@H](CCCCN)NC(=O)[C@H](CCC(N)=O)NC(=O)[C@@H](NC(=O)[C@H](Cc2ccc(O)cc2)NC(=O)[C@@H](N)Cc2cn(CCOCCOCCOCCOCCOCCOCCOCCOCCOCCOCCOCCNC(=O)CSCc3ccccc3)nn2)CSSC[C@@H]2NC(=O)[C@@H]3CSSC[C@@H](C(=O)N[C@@H](CCCNC(=N)N)C(=O)N[C@@H](CCCCN)C(=O)N[C@H](C(=O)N[C@H](C(N)=O)[C@@H](C)CC)[C@@H](C)CC)NC(=O)[C@H](Cc4c[nH]c5ccccc45)NC(=O)[C@H](CC(C)C)NC(=O)[C@H](CCCCN)NC(=O)[C@H](CSSC[C@H](NC(=O)[C@H]([C@@H](C)O)NC(=O)[C@H](Cc4c[nH]c5ccccc45)NC1=O)C(=O)N[C@@H](CC(=O)O)C(=O)N[C@@H](CO)C(=O)N[C@@H](CCCCN)C(=O)N[C@@H](CCCNC(=N)N)C(=O)N[C@@H](C)C(=O)N3)NC(=O)[C@H](CCCNC(=N)N)NC(=O)[C@H](CC(C)C)NC(=O)CNC(=O)[C@H](CCC(=O)O)NC2=O [compound 427] |  |  | 9 | 1416
C#CC[C@H](N)C(=O)N[C@@H](Cc1ccc(O)cc1)C(=O)N[C@H]1CSSC[C@@H]2NC(=O)[C@@H]3CSSC[C@@H](C(=O)N[C@@H](CCCNC(=N)N)C(=O)N[C@@H](CCCCN)C(=O)N[C@H](C(=O)N[C@H](C(N)=O)[C@@H](C)CC)[C@@H](C)CC)NC(=O)[C@H](Cc4c[nH]c5ccccc45)NC(=O)[C@H](CC(C)C)NC(=O)[C@H](CCCCN)NC(=O)[C@H](CSSC[C@H](NC(=O)[C@H]([C@@H](C)O)NC(=O)[C@H](Cc4c[nH]c5ccccc45)NC(=O)[C@H](CCCC)NC(=O)[C@H](Cc4c[nH]c5ccccc45)NC(=O)[C@H](CCCCN)NC(=O)[C@H](CCC(N)=O)NC1=O)C(=O)N[C@@H](CC(=O)O)C(=O)N[C@@H](CO)C(=O)N[C@@H](CCCCN)C(=O)N[C@@H](CCCNC(=N)N)C(=O)N[C@@H](C)C(=O)N3)NC(=O)[C@H](CCC(=O)O)NC(=O)[C@H](CC(C)C)NC(=O)CNC(=O)[C@H](CCC(=O)O)NC2=O [compound 297] | 431 | 642 |  | 
C#CC[C@@H]1NC(=O)[C@@H]2CSSC[C@H](NC(=O)[C@@H](N)Cc3ccc(O)cc3)C(=O)N[C@@H](CCC(N)=O)C(=O)N[C@@H](CCCCN)C(=O)N[C@@H](Cc3c[nH]c4ccccc34)C(=O)N[C@@H](CCCC)C(=O)N[C@@H](Cc3c[nH]c4ccccc34)C(=O)N[C@@H]([C@@H](C)O)C(=O)N[C@H]3CSSC[C@H](NC(=O)[C@H](CCC(=O)O)NC(=O)[C@H](CC(C)C)NC(=O)CNC1=O)C(=O)N[C@@H](CCCCN)C(=O)N[C@@H](CC(C)C)C(=O)N[C@@H](Cc1c[nH]c4ccccc14)C(=O)N[C@H](C(=O)N[C@@H](CCCNC(=N)N)C(=O)N[C@@H](CCCCN)C(=O)N[C@H](C(=O)N[C@H](C(N)=O)[C@@H](C)CC)[C@@H](C)CC)CSSC[C@H](NC(=O)[C@H](C)NC(=O)[C@H](CCCNC(=N)N)NC(=O)[C@H](CCCCN)NC(=O)[C@H](CO)NC(=O)[C@H](CC(=O)O)NC3=O)C(=O)N2 [compound 346] | 29 | 102 |  | 
C#CC[C@H](N)C(=O)N[C@@H](Cc1ccc(O)cc1)C(=O)N[C@H]1CSSC[C@@H]2NC(=O)[C@@H]3CSSC[C@@H](C(=O)N[C@@H](CCCNC(=N)N)C(=O)N[C@@H](CCCCN)C(=O)N[C@H](C(=O)N[C@@H](Cc4c[nH]c5ccccc45)C(N)=O)[C@@H](C)CC)NC(=O)[C@H](Cc4c[nH]c5ccccc45)NC(=O)[C@H](CC(C)C)NC(=O)[C@H](CCCCN)NC(=O)[C@H](CSSC[C@H](NC(=O)[C@H]([C@@H](C)O)NC(=O)[C@H](Cc4c[nH]c5ccccc45)NC(=O)[C@H](CCC)NC(=O)[C@H](Cc4c[nH]c5ccccc45)NC(=O)[C@H](CCCCN)NC(=O)[C@H](CCC(N)=O)NC1=O)C(=O)N[C@@H](CC(=O)O)C(=O)N[C@@H](CO)C(=O)N[C@@H](CCCCN)C(=O)N[C@@H](CCCNC(=N)N)C(=O)N[C@@H](C)C(=O)N3)NC(=O)[C@H](CCC(=O)O)NC(=O)[C@H](CC(C)C)NC(=O)CNC(=O)[C@H](CCC(=O)O)NC2=O [compound 300] | 1183 | 6483 |  | 
C#CC[C@H](N)C(=O)N[C@@H](Cc1ccc(O)cc1)C(=O)N[C@H]1CSSC[C@@H]2NC(=O)[C@@H]3CSSC[C@@H](C(=O)N[C@@H](CCCNC(=N)N)C(=O)N[C@@H](CCCCN)C(=O)N[C@H](C(=O)N[C@@H](Cc4c[nH]c5ccccc45)C(N)=O)[C@@H](C)CC)NC(=O)[C@H](Cc4c[nH]c5ccccc45)NC(=O)[C@H](CC(C)C)NC(=O)[C@H](CCCCN)NC(=O)[C@H](CSSC[C@H](NC(=O)[C@H]([C@@H](C)O)NC(=O)[C@H](Cc4c[nH]c5ccccc45)NC(=O)[C@H](Cc4ccccc4)NC(=O)[C@H](Cc4c[nH]c5ccccc45)NC(=O)[C@H](CCCCN)NC(=O)[C@H](CCC(N)=O)NC1=O)C(=O)N[C@@H](CC(=O)O)C(=O)N[C@@H](CO)C(=O)N[C@@H](CCCCN)C(=O)N[C@@H](CCCNC(=N)N)C(=O)N[C@@H](C)C(=O)N3)NC(=O)[C@H](CCC(=O)O)NC(=O)[C@H](CC(C)C)NC(=O)CNC(=O)[C@H](CCC(=O)O)NC2=O [compound 298] | 44 | 52 |  | 
CCCC[C@@H]1NC(=O)[C@H](Cc2c[nH]c3ccccc23)NC(=O)[C@H](CCCCN)NC(=O)[C@H](CCC(N)=O)NC(=O)[C@@H](NC(=O)[C@H](Cc2ccc(O)cc2)NC(=O)[C@H](CC#N)NC(=O)[C@@H](N)CCCCN)CSSC[C@@H]2NC(=O)[C@@H]3CSSC[C@@H](C(=O)N[C@@H](CCCNC(=N)N)C(=O)N[C@@H](CCCCN)C(=O)N[C@@H](CCC(=O)O)C(=O)N[C@H](C(N)=O)[C@@H](C)CC)NC(=O)[C@H](Cc4c[nH]c5ccccc45)NC(=O)[C@H](CC(C)C)NC(=O)[C@H](CCCCN)NC(=O)[C@H](CSSC[C@H](NC(=O)[C@H]([C@@H](C)O)NC(=O)[C@H](Cc4c[nH]c5ccccc45)NC1=O)C(=O)N[C@@H](CC(=O)O)C(=O)N[C@@H](CO)C(=O)N[C@@H](CCCCN)C(=O)N[C@@H](CCCNC(=N)N)C(=O)N[C@@H](CCCCNC(=O)[C@@H](N)Cc1cn(CCOCCOCCOCCOCCOCCOCCOCCOCCOCCOCCN)nn1)C(=O)N3)NC(=O)[C@H](CCCNC(=N)N)NC(=O)[C@H](CC(C)C)NC(=O)CNC(=O)[C@H](CCC(=O)O)NC2=O [compound 891] |  |  | 66 | 655
C#CC[C@H](N)C(=O)NCCCC[C@@H]1NC(=O)[C@H](CCCNC(=N)N)NC(=O)[C@H](CCCCN)NC(=O)[C@H](CO)NC(=O)[C@H](CC(=O)O)NC(=O)[C@@H]2CSSC[C@@H]3NC(=O)[C@H](CCCNC(=N)N)NC(=O)[C@H](CC(C)C)NC(=O)CNC(=O)[C@H](CCC(=O)O)NC(=O)[C@H](CSSC[C@H](NC(=O)[C@H](Cc4ccc(O)cc4)NC(=O)[C@@H](N)CC#N)C(=O)N[C@@H](CCC(N)=O)C(=O)N[C@@H](CCCCN)C(=O)N[C@@H](Cc4c[nH]c5ccccc45)C(=O)N[C@@H](CC(C)C)C(=O)N[C@@H](Cc4c[nH]c5ccccc45)C(=O)N[C@@H]([C@@H](C)O)C(=O)N2)NC(=O)[C@H](CSSC[C@@H](C(=O)N[C@@H](CCCNC(=N)N)C(=O)N[C@@H](CCCCN)C(=O)N[C@@H](CCC(=O)O)C(=O)N[C@H](C(N)=O)[C@@H](C)CC)NC(=O)[C@H](Cc2c[nH]c4ccccc24)NC(=O)[C@H](CC(C)C)NC(=O)[C@H](CCCCN)NC3=O)NC1=O [compound 449] | 111 | 1038 |  | 
